Measured values taken from US20240309016A1, “MACROCYCLIC HETEROCYCLE COMPOUNDS AND USE THEREOF” (TAKEDA PHARMACEUTICAL COMPANY LIMITED, priority 2023, published 2024).
Where two headings read alike, the source gives them in different places.

Columns and labels:
[1] = THF
[2] = target: T1, human OX2 receptor (Homo sapiens, UniProt O43614); assay: Measurement of orexin type 2 receptor agonist activity (Experimental Example 2; Fluo-4 AM calcium fluorescence, FDSS μCELL); format: cell-based; details: compound at 3 μM; CHO cells expressing human OX2 receptor; DMSO = 0%, 10 nM orexin A (human) = 100%
T1 construct: expressed in transfected cells
T1 sequence (O43614 1-444): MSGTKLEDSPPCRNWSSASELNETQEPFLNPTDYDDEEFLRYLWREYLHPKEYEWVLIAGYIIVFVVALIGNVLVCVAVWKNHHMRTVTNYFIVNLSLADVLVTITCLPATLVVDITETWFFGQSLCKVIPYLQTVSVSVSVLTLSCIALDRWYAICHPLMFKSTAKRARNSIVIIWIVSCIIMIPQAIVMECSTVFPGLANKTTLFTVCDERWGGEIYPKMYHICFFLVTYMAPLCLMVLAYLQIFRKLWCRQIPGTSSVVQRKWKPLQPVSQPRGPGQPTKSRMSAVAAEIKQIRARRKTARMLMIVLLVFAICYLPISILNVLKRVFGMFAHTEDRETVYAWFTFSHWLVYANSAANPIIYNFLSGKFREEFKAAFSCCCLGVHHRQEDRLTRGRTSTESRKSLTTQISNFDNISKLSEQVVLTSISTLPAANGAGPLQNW
Procedure, shortened: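 Agonism was tested in CHO-K1 cells stably expressing human OX2 receptor (residues 1-444), loaded with Fluo-4 AM plus probenecid. Calcium fluorescence was recorded for 1 min 40 s after compound addition. Activity (%) was scaled between DMSO (0%) and 10 nM orexin A (100%) and reported at 3 μM compound.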

## Cc1ccc2nc1Oc1cccc(c1F)C[C@H]1[C@@H](NS(C)(=O)=O)[C@@H](F)CN1C(=O)NC2 [Example 10, N-[(15aS,16R,17S)-17,20-difluoro-7-methyl-1-oxo-2,3,15a,16,17,18-hexahydro-1H,15H-4,8-(azeno)-14,10-(metheno)pyrrolo[1,2-j][1,8,10]oxadiazacyclo-heptadecin-16-yl]methanesulfonamide]
[1]; from Cc1ccc(CN)nc1Oc1cccc(C[C@@H]2NC[C@H](F)[C@@H]2NS(C)(=O)=O)c1F, other bond, CDI, 2.12 mM, 25.0 °C, 18.0 h
  ring closure, yield of all isomers: 16.7%
[2]
  OX2R agonist activity (3 μM, %): 96%

## Cc1ccc2nc1Oc1cccc(c1)C[C@H]1[C@@H](NS(C)(=O)=O)CCN1C(=O)CC2 [Example 7, N-[(1S,19aS)-11-methyl-5-oxo-2,3,6,7,19,19a-hexahydro-1H, 5H-8,12-(azeno)-14,18-(metheno)pyrrolo[2,1-h][1,9]oxazacycloheptadecin-1-yl]methanesulfonamide]
[1]; from Cc1ccc(CCC(=O)O)nc1Oc1cccc(C[C@@H]2NCC[C@@H]2NS(C)(=O)=O)c1, amide bond, PyBOP/TEA, 0.231 mM, 25.0 °C, 4.0 h
  ring closure, yield of all isomers: 20%
[2]
  OX2R agonist activity (3 μM, %): 103%

## Cc1cc(F)c2nc1Oc1cccc(c1F)C[C@H]1[C@@H](NS(C)(=O)=O)C(F)(F)CN1C(=O)NC2 [Example 36, N-[(15aS,16R)-5,17,17,20-tetrafluoro-7-methyl-1-oxo-2,3,15a,16,17,18-hexahydro-1H,15H-4,8-(azeno)-14,10-(metheno)pyrrolo[1,2-j][1,8,10]oxadiazacyclo-heptadecin-16-yl]methanesulfonamide]
[1]; from Cc1cc(F)c(CN)nc1Oc1cccc(C[C@@H]2NCC(F)(F)[C@@H]2NS(C)(=O)=O)c1F, other bond, di(N-succinimidyl) carbonate, 2.95 mM, 60.0 °C, 1.5 h, 2 steps
  ring closure, yield of all isomers: 38.2%
[2]
  OX2R agonist activity (3 μM, %): 104%

## Cc1ccc2nc1OCc1cccc(c1)C[C@H]1[C@@H](NS(C)(=O)=O)CCN1C(=O)NC2 [Example 68, N-[(16aS,17S)-7-methyl-1-oxo-2,3,16a,17,18,19-hexahydro-1H,10H,16H-4,8-(azeno)-11,15-(metheno)pyrrolo[1,2-j][1,8,10]oxadiazacyclo-octadecin-17-yl]methanesulfonamide]
[1]; from Cc1ccc(CNC(=O)OC(C)(C)C)nc1OCc1cccc(C[C@H]2[C@@H](N(COCC[Si](C)(C)C)S(C)(=O)=O)CCN2C(=O)OC(C)(C)C)c1, other bond, di(N-succinimidyl) carbonate / N-methylmorpholine, DIPEA, 7.5 mM, 25.0 °C, 17.0 h, 2 steps
  ring closure, yield of all isomers: 3.7%
[2]
  OX2R agonist activity (3 μM, %): 100%

## Cc1ccc2nc1Oc1cccc(c1F)C[C@H]1[C@@H](NC(=O)OCc3ccccc3)C(F)(F)CN1C(=O)NC2
[1]; from Cc1ccc(CN)nc1Oc1cccc(C[C@@H]2NCC(F)(F)[C@@H]2NC(=O)OCc2ccccc2)c1F, other bond, di(N-succinimidyl) carbonate, 2.0 mM, 70.0 °C, 5.2 h
  ring closure, yield of all isomers: 78.8%

## Cc1ccc2nc1Oc1cccc(c1F)C[C@H]1[C@@H](NS(=O)(=O)N(C)C)C(F)(F)CN1C(=O)NC2 [Example 11, N,N-dimethyl-N′-[(15aS,16R)-17,17,20-trifluoro-7-methyl-1-oxo-2,3,15a,16,17,18-hexahydro-1H,15H-4,8-(azeno)-14,10-(metheno)pyrrolo[1,2-j][1,8,10]oxadiazacyclo-heptadecin-16-yl]sulfuric diamide]
[2]
  OX2R agonist activity (3 μM, %): 98%

## CCS(=O)(=O)N[C@@H]1[C@@H]2Cc3cc(F)cc(c3)Oc3nc(ccc3C)CNC(=O)N2CC1(F)F (relative stereo) [Example 89, N-[rel-(15aS,16R)-12,17,17-trifluoro-7-methyl-1-oxo-2,3,15a,16,17,18-hexahydro-1H,15H-4,8-(azeno)-14,10-(metheno)pyrrolo[1,2-j][1,8,10]oxadiazacyclo-heptadecin-16-yl]ethanesulfonamide (optical isomer)]
[2]
  OX2R agonist activity (3 μM, %): 114%

## CCc1ccc2nc1Oc1cccc(c1F)C[C@H]1[C@@H](NS(C)(=O)=O)C(F)(F)CN1C(=O)NC2 [Example 79, N-[(15aS,16R)-7-ethyl-17,17,20-trifluoro-1-oxo-2,3,15a,16,17,18-hexahydro-1H,15H-4,8-(azeno)-14,10-(metheno)pyrrolo[1,2-j][1,8,10]oxadiazacyclo-heptadecin-16-yl]methanesulfonamide]
[2]
  OX2R agonist activity (3 μM, %): 102%

## Cc1ccc2nc1Oc1cc(ccc1F)C[C@H]1[C@@H](NS(C)(=O)=O)CCN1C(=O)NC2 (relative stereo) [Example 9, N-[rel-(15aR,16R)-11-fluoro-7-methyl-1-oxo-2,3,15a,16,17,18-hexahydro-1H,15H-4,8-(azeno)-10,14-(metheno)pyrrolo[1,2-j][1,8,10]oxadiazacyclo-heptadecin-16-yl]methanesulfonamide (optical isomer)]
[2]
  OX2R agonist activity (3 μM, %): 93%

## CN1Cc2ccc(Cl)c(n2)Oc2cccc(c2F)C[C@H]2[C@@H](NS(C)(=O)=O)C(F)(F)CN2C1=O [Example 57, N-[(15aS,16R)-7-chloro-17,17,20-trifluoro-2-methyl-1-oxo-2,3,15a,16,17,18-hexahydro-1H,15H-4,8-(azeno)-14,10-(metheno)pyrrolo[1,2-j][1,8,10]oxadiazacyclo-heptadecin-16-yl]methanesulfonamide]
[2]
  OX2R agonist activity (3 μM, %): 108%

## N-[(15aS,16R)-17,17- difluoro-7-methyl-1-oxo- 2,3,15a,16,17,18-hexahydro- 1H,15H-4,8-(azeno)-10,14- (metheno)pyrrolo[1,2- j][1,8,10]oxadiazacyclo- heptadecin-16- yl]ethanesulfonamide [Example 6]
[2]
  OX2R agonist activity (3 μM, %): 99%

## CS(=O)(=O)N[C@@H]1[C@@H]2Cc3cccc(c3)Oc3nc(ccc3C(F)F)CNC(=O)N2CC1(F)F [Example 93, N-[(15aS,16R)-7-(difluoromethyl)-17,17-difluoro-1-oxo-2,3,15a,16,17,18-hexahydro-1H,15H-4,8-(azeno)-14,10-(metheno)pyrrolo[1,2-j][1,8,10]oxadiazacyclohepta-decin-16-yl]methanesulfonamide]
[2]
  OX2R agonist activity (3 μM, %): 109%

## CS(=O)(=O)N[C@@H]1[C@@H]2Cc3cccc(c3)Oc3nc(ccc3Cl)OCC(=O)N2CC1(F)F [Example 96, N-[(15aS,16R)-7-chloro-17,17-difluoro-1-oxo-1,2,15a,16,17,18-hexahydro-15H-4,8-(azeno)-14,10-(metheno)pyrrolo[1,2-d][1,12,4]dioxazacyclo-heptadecin-16-yl]methanesulfonamide]
[2]
  OX2R agonist activity (3 μM, %): 107%

## Cc1ccc2nc1Oc1cccc(c1F)C[C@H]1[C@@H](NS(=O)(=O)C(F)F)C(F)(F)CN1C(=O)NC2 [Example 43, 1,1-difluoro-N-[(15aS,16R)-17,17,20-trifluoro-7-methyl-1-oxo-2,3,15a,16,17,18-hexahydro-1H,15H-4,8-(azeno)-10,14-(metheno)pyrrolo[1,2-j][1,8,10]oxadiazacyclo-heptadecin-16-yl]methanesulfonamide]
[2]
  OX2R agonist activity (3 μM, %): 101%

## CCS(=O)(=O)N[C@@H]1[C@@H]2Cc3cccc(c3F)Oc3nc(ccc3C(F)F)CNC(=O)N2CC1(F)F [Example 29, N-[(15aS,16R)-7-(difluoromethyl)-17,17,20-trifluoro-1-oxo-2,3,15a,16,17,18-hexahydro-1H,15H-4,8-(azeno)-10,14-(metheno)pyrrolo[1,2-j][1,8,10]oxadiazacyclo-heptadecin-16-yl]ethanesulfonamide]
[2]
  OX2R agonist activity (3 μM, %): 100%

## CS(=O)(=O)N[C@@H]1[C@@H]2Cc3cccc(c3F)Oc3nc(ccc3Cl)CNC(=O)N2CC1(F)F [Example 14, N-[(15aS,16R)-7-chloro-17,17,20-trifluoro-1-oxo-2,3,15a,16,17,18-hexahydro-1H,15H-4,8-(azeno)-14,10-(metheno)pyrrolo[1,2-j][1,8,10]oxadiazacyclo-heptadecin-16-yl]methanesulfonamide]
[2]
  OX2R agonist activity (3 μM, %): 99%

## CS(=O)(=O)N[C@@H]1[C@@H]2Cc3cccc(c3F)COc3nc(ccc3Cl)CNC(=O)N2CC1(F)F [Example 94, N-[(16aS,17R)-7-chloro-18,18,21-trifluoro-1-oxo-2,3,16a,17,18,19-hexahydro-1H,10H,16H-4,8-(azeno)-15,11-(metheno)pyrrolo[1,2-j][1,8,10]oxadiazacycloocta-decin-17-yl]methanesulfonamide]
[2]
  OX2R agonist activity (3 μM, %): 109%

## CCS(=O)(=O)N[C@H]1[C@@H](F)CN2C(=O)NCc3ccc(Cl)c(n3)Oc3cccc(c3F)C[C@@H]12 [Example 24, N-[(15aS,16R,17S)-7-chloro-17,20-difluoro-1-oxo-2,3,15a,16,17,18-hexahydro-1H,15H-4,8-(azeno)-14,10-(metheno)pyrrolo[1,2-j][1,8,10]oxadiazacyclo-heptadecin-16-yl]ethanesulfonamide]
[2]
  OX2R agonist activity (3 μM, %): 104%

## CN(C)S(=O)(=O)N[C@H]1[C@@H](F)CN2C(=O)NCc3ccc(C(F)F)c(n3)Oc3cccc(c3F)C[C@@H]12 [Example 37, N′-[(15aS,16R,17S)-7-(difluoromethyl)-17,20-difluoro-1-oxo-2,3,15a,16,17,18-hexahydro-1H,15H-8,4-(azeno)-10,14-(metheno)pyrrolo[1,2-j][1,8,10]oxadiazacyclo-heptadecin-16-yl]-N,N-dimethylsulfuric diamide]
[2]
  OX2R agonist activity (3 μM, %): 101%
